# Key:
# Test in all cases: relative viability (nuclei count vs DMSO), 5 days (fraction); higher = more cells survive
# R406 + Tozasertib = compound: COc1cc(Nc2ncc(F)c(Nc3ccc4c(n3)NC(=O)C(C)(C)O4)n2)cc(OC)c1OC [R406] + Cc1cc(Nc2cc(N3CCN(C)CC3)nc(Sc3ccc(NC(=O)C4CC4)cc3)n2)n[nH]1 [Tozasertib] (partner 0.1 µM)
# Summary of the method: (§1)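 Lung cancer cell lines, seeded in 1536-well plates, were treated the following day by pin tool with a single drug or with five library-drug doses (not always all listed) in √10 steps on top of a fixed anchor-drug dose. Cells were fixed and nuclei stained in one step after 5 days, and nuclei were counted. Relative viability is the nuclei count for treated wells divided by that for vehicle wells, reported as medians of duplicate plates.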
# R406 + Lapatinib = compound: COc1cc(Nc2ncc(F)c(Nc3ccc4c(n3)NC(=O)C(C)(C)O4)n2)cc(OC)c1OC [R406] + CS(=O)(=O)CCNCc1ccc(-c2ccc3ncnc(Nc4ccc(OCc5cccc(F)c5)c(Cl)c4)c3c2)o1 [Lapatinib] (partner 2 µM)
# Summary of the method: as §1
# R406 + Olaparib = compound: COc1cc(Nc2ncc(F)c(Nc3ccc4c(n3)NC(=O)C(C)(C)O4)n2)cc(OC)c1OC [R406] + O=C(c1cc(Cc2n[nH]c(=O)c3ccccc23)ccc1F)N1CCN(C(=O)C2CC2)CC1 [Olaparib] (partner 8 µM)
# Summary of the method: as §1
# R406 + Bortezomib = compound: COc1cc(Nc2ncc(F)c(Nc3ccc4c(n3)NC(=O)C(C)(C)O4)n2)cc(OC)c1OC [R406] + CC(C)C[C@H](NC(=O)[C@H](Cc1ccccc1)NC(=O)c1cnccn1)B(O)O [Bortezomib] (partner 0.002 µM)
# Summary of the method: as §1
Cell Line,relative viability (R406 + Tozasertib; first compound 0.08 µM),relative viability (R406 + Tozasertib; first compound 0.253 µM),relative viability (R406 + Tozasertib; first compound 0.8 µM),relative viability (R406 + Tozasertib; first compound 2.53 µM),relative viability (R406 + Tozasertib; first compound 8 µM),relative viability (R406 + Lapatinib; first compound 0.08 µM),relative viability (R406 + Lapatinib; first compound 0.253 µM),relative viability (R406 + Lapatinib; first compound 0.8 µM),relative viability (R406 + Lapatinib; first compound 2.53 µM),relative viability (R406 + Lapatinib; first compound 8 µM),relative viability (R406 + Olaparib; first compound 0.08 µM),relative viability (R406 + Olaparib; first compound 0.253 µM),relative viability (R406 + Olaparib; first compound 0.8 µM),relative viability (R406 + Olaparib; first compound 2.53 µM),relative viability (R406 + Olaparib; first compound 8 µM),relative viability (R406 + Bortezomib; first compound 0.08 µM),relative viability (R406 + Bortezomib; first compound 0.253 µM),relative viability (R406 + Bortezomib; first compound 0.8 µM),relative viability (R406 + Bortezomib; first compound 2.53 µM),relative viability (R406 + Bortezomib; first compound 8 µM)
NCI-H650,0.701,0.885,0.699,0.614,0.599,0.877,1.04,1.02,0.243,0.52,0.342,0.42,0.435,0.313,0.301,0.712,0.852,0.977,0.625,0.389
NCI-H2023,0.384,0.396,0.354,0.225,0.178,0.968,0.976,1.05,0.0633,0.189,0.437,0.49,0.474,0.4,0.163,0.914,1.04,1.08,0.0862,0.29
NCI-H23,0.35,0.394,0.511,,0.148,1.12,1.54,1.28,0.589,0.593,0.277,0.271,0.236,0.263,0.139,0.953,1.45,1.35,0.906,0.278
NCI-H596,0.868,1.01,1.05,0.513,0.267,1.04,1.2,0.972,0.867,0.421,0.626,0.734,0.606,0.641,0.377,1.1,1.28,0.758,0.984,0.475
NCI-H520,0.499,0.469,0.45,0.347,0.219,0.733,1.03,1.02,0.241,0.133,0.314,0.34,0.329,0.194,0.126,0.604,0.804,0.971,0.209,0.157
EKVX,0.369,0.45,0.499,0.317,0.273,0.247,0.239,0.18,0.104,0.176,0.928,0.971,0.995,0.717,0.655,1.01,1.17,1.45,0.994,0.6
EPLC-272H,0.206,0.242,0.403,0.177,0.111,0.888,0.924,1.1,0.442,0.228,0.8,0.754,0.707,0.325,0.112,0.813,0.983,0.984,0.51,0.495
NCI-H2126,0.829,0.962,0.848,0.806,0.545,0.763,0.798,0.801,0.772,0.737,0.933,0.943,0.933,0.855,0.557,1.05,1.13,1.24,1.03,1.04
LXF-289,0.192,0.178,0.197,0.183,0.067,0.868,1.01,0.9,0.921,0.605,1.08,1.18,1.12,1.02,0.219,0.913,0.953,1.01,1.04,0.483
NCI-H2009,0.816,0.848,0.716,0.627,0.311,0.93,1.19,1.22,0.0976,0.261,0.687,0.706,0.844,0.489,0.546,0.983,1.11,1.24,0.427,0.27
NCI-H2405,0.76,0.845,0.82,0.804,0.542,0.98,1.14,1.13,0.269,0.234,0.857,0.879,0.879,0.748,0.306,1.01,1.11,1.05,0.941,0.845
NCI-H1755,0.463,0.529,0.605,0.504,0.331,1.03,1.07,1.04,0.678,0.329,0.801,0.88,0.869,0.792,0.502,0.994,1,0.974,0.748,0.571
HCC-78,0.513,0.432,0.563,0.404,0.417,0.673,0.919,0.888,0.649,0.354,0.83,0.896,0.848,0.656,0.394,0.491,0.541,0.51,0.306,0.241
LOU-NH91,0.723,0.764,0.644,0.472,0.466,0.785,0.792,0.734,0.564,0.537,0.898,0.956,0.934,0.658,0.478,0.427,0.4,0.469,0.496,0.471
NCI-H3122,0.491,0.415,0.34,0.328,0.45,1.01,1.06,0.981,0.969,0.934,0.637,0.739,0.69,0.566,0.625,0.97,0.972,1.03,1.01,0.947
HCC-827,0.421,0.463,0.45,0.386,0.233,0.163,0.21,0.186,0.169,0.17,0.724,0.663,0.667,0.522,0.545,1.06,1.12,1.12,1.11,1.02
SW 1573,0.179,0.233,0.22,0.175,0.0962,1.13,1.22,1.14,1.27,0.825,0.492,0.57,0.607,0.399,0.158,0.994,1.23,1.35,0.768,0.569
NCI-H1975,0.75,0.918,0.785,0.189,0.109,0.779,1.01,1.14,0.221,0.169,0.706,0.862,0.783,0.311,0.204,0.444,0.39,0.401,0.162,0.178
NCI-H1651,0.719,0.865,0.641,0.592,0.496,0.694,0.87,0.944,0.234,0.275,0.19,0.193,0.177,0.173,0.172,0.921,1.06,0.9,0.935,0.948
NCI-H460,0.493,0.486,0.481,0.344,0.264,1.07,1.51,,,0.308,0.363,0.577,0.441,0.434,0.341,0.96,1.33,1.58,,0.486
LCLC-97TM1,0.217,0.318,0.209,0.216,0.226,0.647,0.855,1.06,0.717,1.13,0.371,0.465,0.534,0.253,0.179,0.718,0.659,0.793,0.489,0.207
NCI-H838,0.247,0.327,0.248,0.254,0.217,0.886,1.11,1.36,0.114,0.182,0.725,0.798,0.908,0.248,0.142,0.709,1.46,1.01,0.11,0.153
NCI-H1355,0.572,0.575,0.558,0.572,0.258,0.887,0.974,1.08,0.901,0.764,0.675,0.8,0.82,0.569,0.374,1.23,1.29,1.44,1.02,0.957
HOP-62,0.356,0.456,0.362,0.366,0.554,0.918,0.949,1.08,1.06,1.12,0.252,0.415,0.575,0.517,0.495,0.835,0.656,0.559,1.02,0.82
NCI-H2085,0.83,0.892,0.872,0.632,0.379,0.783,0.851,0.894,0.52,0.591,0.79,0.823,0.788,0.738,0.458,0.996,1.14,1.1,0.708,0.775

# Reference: the supplement of paper PMC10307832
